Test results from patent US20190008440A1, “Method and device to investigate or treat painful neuropathy” (priority 2017, published 2019).

How the values were obtained:
C fiber mediated pain = conditions: in vivo; cited from earlier work
A delta nociceptors = assay: Laser pin prick pain threshold (A delta fibers) of healthy volunteer after topical capsaicin; type: in vivo, human; conditions: beam 1 mm, 20 minutes after topical capsaicin on skin
From the text: The following is a description a typical test procedure utilizing the present invention with the application of protocol Example 1 for healthy volunteers and pain patients:
Step 1: Preparing volunteer for test. The volunteers were asked to respond to stimuli after each stimulus was applied, and describing the level and type of evoked sensation, location of sensation, how long the sensation lasts, whether the sensation was single (monomodal) or if more than one sensation were evoked by stimulation.
Step 2: The level of power of laser was adjusted to skin type of volunteer and irradiated spot was selected as close as possible to A-delta receptors.
Collimated beam with diameter 2 mm, within range of power 5.0-10.0 W and pulse duration 100 ms is applied to an investigated area of skin to determine the individual sensitivity and to map the location of A delta nociceptors. The power is increased with step 0.5 W until the first sensation is evoked. After that, the pulse power is fixed and the position of the irradiated spot is scanned (tuned) within an XY frame 5 mm×5 mm to find the location of the nociceptor and pulse power is applied for each new location with spatial steps of around 0.5 mm for fingertips.
The inter-stimulus time was at least 20 sec. The first appeared sensation was rated by the volunteer as barely pricking pain without any other sensations of warmth or hot pain.
After the location of receptors were determined, the summation curve—Power of Pain Threshold vs. Pulse Duration were measured by the following procedure: • 1) Collimated beam was adjusted to 1 mm, • 2) Duration of pulse set up to 50 ms and pulse power was increased from 2 W until volunteer reported about first appeared sensation. • 3) Afterwards, power was increased until volunteer reported that sensation became clearly painful, but decreasing of power of stimulus on 5-10% leads to the disappearance of pain. • 4) Afterward, the power threshold was measured for 50 ms pulse duration was increased by step 50 ms and procedure measurement of threshold was repeated. The increment of power was 0.1 W.
The healthy volunteer was tested with pulse durations from 50 ms to 300 ms and beam size of 1 mm. The volunteer reported what around 200-300 ms, they felt on the same level of power firstly warmth and after that pricking pain but for pulses within range 50-150 ms, only single (monomodal) pricking pain was discerned. The sensations were sharp and disappeared in a few seconds after stimulation. The next stimulus was applied not earlier than 20 sec or after the disappearance of painful sensation of previous stimulus.
The thresholds of pin prick pain of healthy volunteers were measured in 20 minutes after topical analgesic (capsaicin) was applied on skin. The Steps 2, 3 and 4 were repeated.

C fibers = assay: Laser threshold pulse duration for hot pain (stimulation of C fibers), hairy skin of left hand; type: in vivo, human
Method: Subjects: A chronic pain patient with hypersensitivity and a healthy volunteer were tested. Both subjects gave informed consent and the experiments were approved by the local institutional review board. The hairy skin of left hand was used for both volunteers. In preparing the subjects testing, they were asked to respond orally immediately after they perceived any threshold sensation and/or to interrupt lasing pulse by pressing STOP button. They then described the level and type of evoked sensation, location of sensation, how long the sensation lasted, whether the sensation was single (monomodal) sensation or if there were more than one evoked sensations by a single stimulation. Afterwards, the threshold pulse was applied 3 times to different areas with interval of {tilde over ( )}3 min or after the previous sensation (pain) had disappeared. The appearance redness was an indication of skin irritation.
Step 1: To test duration of pulse that evoked threshold warmth sensation only, the output power was set to 1.5 W, beam size adjusted to 5 mm. The pulse was applied to the skin. When the volunteer reported warmth (pain) sensation the lasing was stopped. […]
The laser radiation was stopped by volunteer. […] When this button was pushed the command “stop lasing” was activated, duration of applied pulse was measured and it was indicated on the screen of PC connected to the device by RS232 interface. […]

A delta and C fibers = assay: Skin biopsies processed with PGP 9.5 biomarker, integral fiber density of A delta and C fibers in epidermis and dermis; type: in vivo, human; conditions: biopsies 7 days after treatment with 8% capsaicin patch
From the text: In 7 days after treatment additional biopsies from laser and capsaicin treated areas together with control were taken and “blindly” processed with PGP 9.5 biomarker to determine the integral fiber density of the A delta and C fibers in epidermis and dermis.

[1] = cited from earlier work

CN1CC[C@]23c4c5ccc(O)c4O[C@H]2[C@@H](O)C=C[C@H]3[C@H]1C5 [morphine]
inhibition of C fiber mediated pain vs A delta fiber mediated pain (C fiber mediated pain): much more effective in inhibiting C fiber mediated pain than A delta fiber mediated pain

COc1cc(CNC(=O)CCCC/C=C/C(C)C)ccc1O [capsaicin]
Power of Pain Thresholds of Healthy Volunteer (Capsaicin) (A delta nociceptors; pulse duration 50 ms, untreated healthy volunteer 9.5 W): 14.8 W
Power of Pain Thresholds of Healthy Volunteer (Capsaicin) (A delta nociceptors; pulse duration 100 ms, untreated healthy volunteer 4.5 W): 7.0 W
Power of Pain Thresholds of Healthy Volunteer (Capsaicin) (A delta nociceptors; pulse duration 150 ms, untreated healthy volunteer 3.2 W): 5 W
Power of Pain Thresholds of Healthy Volunteer (Capsaicin) (A delta nociceptors; pulse duration 200 ms, untreated healthy volunteer 2.8 W): 4.3 W
Power of Pain Thresholds of Healthy Volunteer (Capsaicin) (A delta nociceptors; pulse duration 300 ms, untreated healthy volunteer 2.5 W): 3.9 W
threshold pulse duration, hot pain (C fibers; power 1.5 W, beam 5 mm, healthy volunteer affected topical capsaicin, stop button, untreated healthy volunteer 1300 ms): 800 ms
effect on thresholds of warmth sensation and hot/burning pain (C fibers; topical capsaicin): decreases the thresholds of warmth sensation and hot/burning pain
fiber density below control (A delta and C fibers): 10 to 20%
residual time ([1]; capsaicin solution used to stimulate neurogenic flare): over 48 hours
duration of capsaicin induced flare ([1]; in vivo): over several hours
residual time of capsaicin in the skin ([1]; patch application): 48 h
